According to patent publication US20260041093A1, “Ionic Derivatives Of Aromatic Carboxylic Acid For Use As Plant Stimulants, Method For Stimulating Plants And Use Of These Derivatives For Manufacturing Compositions For Stimulating Plants” (FUNDACJA UNIWERSYTETU IM. ADAMA MICKIEWICZA W POZNANIU, priority 2022, published 2026):
Read-outs that look alike come from different tables or passages of the source.

Key:
[1] = system: Tobacco Mosaic Virus (TMV); test: Protection of tobacco against TMV infection by watering twice (Example 24); format: in vivo, Nicotiana tabacum cv. Xanthi; conditions: watered twice, 7 days after infection
Experimental: Tobacco plants (Nicotiana tabacum) cv. […] 3,5-dichlorosalicylate of choline; 4. 3-chlorosalicylate of sodium, 5. 3-chlorosalicylate of potassium, 6. 3-chlorosalicylate of calcium, 7. 3-chlorosalicylate of magnesium at a concentration of 10 or 40 or 80 mg/L, at one-week intervals. The control was tobacco plants watered only with water. One week after the second treatment of the plants with the preparation, mechanical infection of the leaves with Tobacco Mosaic Virus (TMV) was carried out. This consisted of rubbing carborundum-sprinkled leaves several times with fingers soaked in a suspension of purified virus at a concentration of about 2 μg/ml. In order to evaluate the effectiveness of the tested substances in protection against biotic stresses, the TMV model and tobacco cv. Xanthi characterized by an interaction in the form of hypersensitivity phenomenon, i.e. the formation of easily quantifiable necrotic spots, were used.

[2] = system: powdery mildew fungus; test: Direct effect on fungal infectivity (Example 23); format: in vivo; conditions: tobacco plant, 5 days after infection with solution of fungus and test substance; control 100
Experimental: Proceeding as in Example 21, the test was performed on the powdery mildew fungus, which was then incubated on the medium.

[3] = system: Tobacco Mosaic Virus (TMV); test: Protection of tobacco against TMV infection by spraying twice (Example 25); format: in vivo, Nicotiana tabacum cv. Xanthi; conditions: sprayed twice, 7 days after infection
Source text: 5-chlorosalicylate of choline; 3. 3,5-dichlorosalicylate of choline; 4. 3-chlorosalicylate of sodium, 5. 3-chlorosalicylate of potassium, 6. 3-chlorosalicylate of calcium, 7.

[4] = system: powdery mildew fungus; format: in vivo, tomato; conditions: 80 mg/L, watered twice; 2 weeks after infection
Experimental: Tomato plants, at the stage of the first pair of developed true leaves, were watered twice with a solution of substance 1-32 at a concentration of 80 mg/L, at a weekly interval. The control was tomato plants watered only with water. […] The suspension was prepared from culture on solid medium. Protection against biotic stress was evaluated by comparing the area of leaves affected by infection.

[5] = system: Pseudomonas syringae pv. Tomato (Pst); conditions: watered twice, Pst 10^5, 2 weeks after infection
Experimental: Tobacco plants at the stage of 3 developed leaves were watered twice, at a weekly interval, with a solution of test substances 1-11 at concentrations of 10, 40, 80 mg/L. The control was tobacco plants watered with water only. One week after the second treatment, a suspension of Pst bacteria at a concentration of 10^5 was spotted into the leaves using an insulin syringe (without a needle). The suspension was prepared from a two-day culture of Pst on solid medium. Protection against biotic stress was evaluated by the proliferation of bacteria in the leaves at the insertion site and the formation of a necrotic spot, compared to the control.
We proceeded as in Example 30, with the effectiveness of protection against biotic stress tested against bacterial cell concentrations raised to about 10^6.

[6] = system: Brome Mosaic Virus (BMV); test: Protection of barley against Brome Mosaic Virus infection by watering (Examples 28 and 29); format: in vivo; conditions: 80 mg/L, watered twice; 2 weeks after infection
[7] = system: Pseudomonas syringae pv. Tomato; test: Direct effect on bacterial infectivity (Example 22); format: in vivo; conditions: tobacco plant, 5 days after infection with solution of bacteria and test substance; control 100
Experimental: Proceeding as in example 21, Pseudomonas syringae pv. Tomato bacteria were tested and incubated in bacterial medium.

[8] = system: powdery mildew fungus; test: Protection of tomato against powdery mildew by spraying (Example 35); format: in vivo, Lycopersicon Esculentum Mill tomato; conditions: 40 mg/l, sprayed twice; 2 weeks after pathogen inoculation
Experimental: […] The control was tomato plants watered only with water. […] The suspension was prepared from culture on solid medium. Protection against biotic stress was evaluated by comparing the area of leaves affected by infection.
Proceeded in the way as described in Example 34, with the difference that plants were sprayed and not watered.

[9] = system: Pseudomonas syringae pv. Tomato (Pst); test: Protection of tomato against Pseudomonas syringae pv. Tomato by watering (Example 32); format: in vivo; conditions: 80 mg/L; watered twice; Pst 10^5; 2 weeks after infection
Experimental: (§1) Tomato plants, at the stage of the first pair of developed true leaves, were watered twice with a solution of substance 1-6 at a concentration of 80 mg/L, at a weekly interval. The control was tomato plants watered only with water. One week after the second treatment, a suspension of Pst bacteria at a concentration of 10^5 was spot-injected into the leaves using an insulin syringe (without a needle). The suspension was prepared from a two-day culture of Pst on solid medium. Protection against biotic stress was evaluated by the proliferation of bacteria in the leaves at the insertion site and the formation of a necrotic spot, compared to the control.

[10] = system: tobacco mosaic virus (TMV); test: Direct effect on TMV infectivity: virus incubated with substance, then Xanthi tobacco leaves infected (Example 21); format: in vivo; conditions: TMV about 3 μg/ml mixed 1:1 with substance 80 mg/L, 30 min; 5 days after infection; control 100
Experimental: Sodium 3-chlorosalicylate; 5. Potassium 3-chlorosalicylate; 6. Calcium 3-chlorosalicylate; 7. Magnesium 3-chlorosalicylate (concentration 80 mg/L), in a 1:1 ratio and incubated for 30 min at room temperature. The control variant consisted of TMV incubated in water. All virus suspensions were used to mechanically infect Xanthi tobacco leaves, whose reaction to infection is manifested in easily quantifiable local necrotic spots (hypersensitivity, local infection).
After 5 days, the area of leaf covered by necrotic spots compared to total leaf area was calculated for plants of all variants of treatment.

[11] = system: Pseudomonas syringae pv. Tomato (Pst); test: Protection of tomato against Pseudomonas syringae pv. Tomato by spraying (Example 33); format: in vivo, Lycopersicon Esculentum Mill tomato; conditions: 80 mg/L, sprayed twice; 2 weeks after infection
Experimental: as §1
The procedure was followed as in Example 32, with the plants sprayed.

`C[N+](C)(C)CCO.O=C([O-])c1cc(Cl)cc(Cl)c1O` was tested, and the “% reduction in necrotic spots compared to control” value (from here on “% reduction in necrotic spots”) ([1]; 10 mg/L) was 36%, the “% reduction in necrotic spots” value ([1]; 40 mg/L) was 58% and the “% reduction in necrotic spots” value ([1]; 80 mg/L) was 96%. For the same compound, the “% of necrotic spots” value [2] was 96%, the “% reduction in necrotic spots” value ([3]; 10 mg/L) was 36% and the “% reduction in necrotic spots” value ([3]; 40 mg/L) was 47%. The “% reduction in necrotic spots” value ([3]; 80 mg/L) was 54%, the “% reduction in necrotic spots” value [4] was 85% and the “% reduction in necrotic spots” value ([5]; 10 mg/L) was 27%. For the same compound, the “% reduction in necrotic spots” value ([5]; 40 mg/L) was 38%, the “% reduction in necrotic spots” value ([5]; 80 mg/L) was 84% and the “% reduction in necrotic spots” value [6] was 77%. The “% of necrotic spots” value [7] was 100%, the “Reduction in necrotic spots (white patches) compared to control” value [8] was 66% and the “% reduction in necrotic spots” value [9] was 59%. The “% of necrotic spots” value [10] was 95% and the “% reduction in necrotic spots” value [11] was 57%.
In the case of `C[N+](C)(C)CCO.O=C([O-])c1cc(Cl)ccc1O` [choline 5-chlorosalicylate], the “% reduction in necrotic spots” value ([1]; 10 mg/L) is reported as 34%, the “% reduction in necrotic spots” value ([1]; 40 mg/L) is reported as 62% and the “% reduction in necrotic spots” value ([1]; 80 mg/L) is reported as 98%. For the same compound, the “% of necrotic spots” value [2] was 98%, the “% reduction in necrotic spots” value ([3]; 10 mg/L) was 39% and the “% reduction in necrotic spots” value ([3]; 40 mg/L) was 61%. For the same compound, the “% reduction in necrotic spots” value ([3]; 80 mg/L) was 74%, the “% reduction in necrotic spots” value [4] was 90% and the “% reduction in necrotic spots” value ([5]; 10 mg/L) was 28%. The “% reduction in necrotic spots” value ([5]; 40 mg/L) was 36%, the “% reduction in necrotic spots” value ([5]; 80 mg/L) was 80% and the “% reduction in necrotic spots” value [6] was 36%. For the same compound, the “% of necrotic spots” value [7] was 98%, the “Reduction in necrotic spots (white patches) compared to control” value [8] was 68% and the “% reduction in necrotic spots” value [9] was 87%. The “% of necrotic spots” value [10] was 100% and the “% reduction in necrotic spots” value [11] was 88%.
For `O=C([O-])c1cccc(Cl)c1O.[K+]` [potassium 3-chlorosalicylate], the “% reduction in necrotic spots” value ([1]; 10 mg/L) was 32%, the “% reduction in necrotic spots” value ([1]; 40 mg/L) was 65% and the “% reduction in necrotic spots” value ([1]; 80 mg/L) was 98%. For the same compound, the “% of necrotic spots” value [2] was 98%, the “% reduction in necrotic spots” value ([3]; 10 mg/L) was >10% and the “% reduction in necrotic spots” value ([3]; 40 mg/L) was >10%. For the same compound, the “% reduction in necrotic spots” value ([3]; 80 mg/L) was 15%, the “% reduction in necrotic spots” value [4] was 84% and the “% of necrotic spots” value [7] was 98%. The “Reduction in necrotic spots (white patches) compared to control” value [8] was 54%, the “% reduction in necrotic spots” value [9] was 87% and the “% of necrotic spots” value [10] was 95%. For the same compound, the “% reduction in necrotic spots” value [11] was 84%.
For `O=C([O-])c1cccc(Cl)c1O.[Na+]` [sodium 3-chlorosalicylate], the “% reduction in necrotic spots” value ([1]; 10 mg/L) was 24%, the “% reduction in necrotic spots” value ([1]; 40 mg/L) was 63% and the “% reduction in necrotic spots” value ([1]; 80 mg/L) was 95%. The “% of necrotic spots” value [2] was 96%, the “% reduction in necrotic spots” value ([3]; 10 mg/L) was 24% and the “% reduction in necrotic spots” value ([3]; 40 mg/L) was 29%. For the same compound, the “% reduction in necrotic spots” value ([3]; 80 mg/L) was 55%, the “% reduction in necrotic spots” value [4] was 88% and the “% of necrotic spots” value [7] was 95%. For the same compound, the “Reduction in necrotic spots (white patches) compared to control” value [8] was 55%, the “% reduction in necrotic spots” value [9] was 53% and the “% of necrotic spots” value [10] was 97%. The “% reduction in necrotic spots” value [11] was 51%.
In the case of calcium 3-chlorosalicylate, the “% reduction in necrotic spots” value ([1]; 10 mg/L) is reported as 33%, the “% reduction in necrotic spots” value ([1]; 40 mg/L) is reported as 65% and the “% reduction in necrotic spots” value ([1]; 80 mg/L) is reported as 97%. The “% of necrotic spots” value [2] was 97%, the “% reduction in necrotic spots” value ([3]; 10 mg/L) was 20% and the “% reduction in necrotic spots” value ([3]; 40 mg/L) was 30%. The “% reduction in necrotic spots” value ([3]; 80 mg/L) was 36%, the “% reduction in necrotic spots” value [4] was 69% and the “% of necrotic spots” value [7] was 97%. For the same compound, the “Reduction in necrotic spots (white patches) compared to control” value [8] was 62%, the “% reduction in necrotic spots” value [9] was 86% and the “% of necrotic spots” value [10] was 100%. The “% reduction in necrotic spots” value [11] was 82%.
